Measurements as given in patent US9630922B2, “3-spiro-7-hydroxamic acid tetralins as HDAC inhibitors” (Forma Therapeutics, Inc., priority 2015, dated 2017).

Target: T1, HDAC6 (Homo sapiens, UniProt Q9UBN7)
T1 construct: Full length human recombinant HDAC6 protein was expressed in baculoviral system; made in house; host or cells: baculoviral system
T1 sequence (Q9UBN7 1-1215): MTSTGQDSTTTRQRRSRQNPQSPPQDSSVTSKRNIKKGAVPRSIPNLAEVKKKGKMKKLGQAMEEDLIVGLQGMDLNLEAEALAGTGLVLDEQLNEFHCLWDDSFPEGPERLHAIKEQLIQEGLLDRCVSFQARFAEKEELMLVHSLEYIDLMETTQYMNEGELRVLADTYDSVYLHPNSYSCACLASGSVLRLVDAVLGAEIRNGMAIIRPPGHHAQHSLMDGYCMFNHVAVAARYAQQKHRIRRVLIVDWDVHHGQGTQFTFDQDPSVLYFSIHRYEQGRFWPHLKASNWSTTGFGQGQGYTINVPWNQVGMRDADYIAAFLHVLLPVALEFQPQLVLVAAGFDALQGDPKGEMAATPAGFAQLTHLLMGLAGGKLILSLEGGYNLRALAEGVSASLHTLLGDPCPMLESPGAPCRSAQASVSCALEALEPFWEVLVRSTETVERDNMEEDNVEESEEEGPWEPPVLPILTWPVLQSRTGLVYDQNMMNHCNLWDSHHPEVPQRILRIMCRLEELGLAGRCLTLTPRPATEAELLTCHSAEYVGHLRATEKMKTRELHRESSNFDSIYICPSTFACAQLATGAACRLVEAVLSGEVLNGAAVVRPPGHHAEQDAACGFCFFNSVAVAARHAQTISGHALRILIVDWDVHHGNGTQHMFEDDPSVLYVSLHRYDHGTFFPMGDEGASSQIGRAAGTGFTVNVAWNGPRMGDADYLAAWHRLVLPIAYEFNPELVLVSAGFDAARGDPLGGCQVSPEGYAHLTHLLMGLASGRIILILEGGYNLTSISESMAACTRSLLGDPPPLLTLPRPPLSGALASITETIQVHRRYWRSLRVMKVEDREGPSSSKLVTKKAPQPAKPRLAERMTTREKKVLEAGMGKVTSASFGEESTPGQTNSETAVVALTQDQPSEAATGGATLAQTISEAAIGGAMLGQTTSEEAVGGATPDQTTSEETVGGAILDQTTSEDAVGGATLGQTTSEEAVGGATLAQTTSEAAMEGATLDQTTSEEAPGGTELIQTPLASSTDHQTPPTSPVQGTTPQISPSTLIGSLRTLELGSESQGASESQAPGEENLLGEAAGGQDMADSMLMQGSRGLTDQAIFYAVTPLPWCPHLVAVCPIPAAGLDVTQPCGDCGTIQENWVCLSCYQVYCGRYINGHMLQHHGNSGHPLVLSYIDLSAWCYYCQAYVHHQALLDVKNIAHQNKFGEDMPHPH
Test: In vitro Histone Deacetylase Assay (enzymatic HDAC6 electrophoretic mobility shift assay)
Format: biochemical
Conditions: full length human recombinant HDAC6, 1 nM enzyme, 2 μM peptide substrate RHKK(Ac)-NH2, 25° C.; read-out: HDAC6 activity range
Protocol: The enzymatic HDAC6 assay was performed using electrophoretic mobility shift assay. Full length human recombinant HDAC6 protein was expressed in baculoviral system and purified by affinity chromatography. The enzymatic reactions were assembled in 384 well plates in a total volume of 25 μL in a reaction buffer composing: 100 mM HEPES, pH7.5, 25 mM KCl, 0.1% bovine serum albumin, 0.01% Triton X-100, 1% DMSO (from compounds) 2 μM of the fluorescently labeled peptide substrate and enzyme. The enzyme was added at a final concentration of 1 nM. The peptide substrate RHKK(Ac)—NH2 was used. The compounds were tested at 12 concentrations spaced by 3× dilution intervals. Negative control samples (0%-inhibition in the absence of inhibitor) and positive control samples (100%-inhibition) were assembled in replicates of four in each assay plate. The reactions were incubated at 25° C. and quenched by the addition of 45 μL of termination buffer (100 mM HEPES, pH 7.5, 0.01% Triton X-100, 0.05% SDS).
The terminated assay plates were analyzed on LabChip® 3000 microfluidic electrophoresis instrument (Perkin Elmer/Caliper Life Sciences). The fluorescence intensity of the electrophoretically separated de-acetylated product and substrate peptide was measured. Activity in each sample was determined as the product to sum ratio (PSR): P/(S+P), where P is the peak height of the product peptide and S is the peak height of the substrate peptide. Percent inhibition (Pinh) is determined using the following equation:
Pinh=(PSR0%−PSRinh)/(PSR0%−PSR100%)*100, where PSRinh is the product sum ratio in the presence of inhibitor, PSR0% is the average product sum ration in the absence of inhibitor and PSR100% is the average product sum ratio in 100%-inhibition control samples. The IC50 values of inhibitors were determined by fitting the %-inhibition curves with 4 parameter dose-response model using XLfit 4 software.
As set forth in Table-31, below, IC50 values are defined as follows: IC50≦0.1 μM (+++); IC50>0.1 μM and ≦0.5 μM (++); IC50>0.5 μM (+).

Row | SMILES | IC50
1 | O=C(NO)c1ccc2c(c1)CCC1(CC(=O)N(c3cccnc3)C1)C2 (single isomer, unassigned) [Compound I-224] | ≤ 100 nM
2 | Cc1ccccc1CN1CC2(CCc3cc(C(=O)NO)ccc3C2)CC1=O (single isomer, unassigned) [Compound I-225] | ≤ 100 nM
3 | O=C(NO)c1ccc2c(c1)CC[C@]1(CC(=O)N(Cc3cccnc3)C1)C2 (single isomer, unassigned) [Compound I-226] | ≤ 100 nM
4 | O=C(NO)c1ccc2c(c1)CCC1(CC(=O)N(c3ccc(F)cc3)C1)C2 (single isomer, unassigned) [Compound I-227] | ≤ 100 nM
5 | O=C(NO)c1ccc2c(c1)CCC1(CCN(Cc3nc4ccccc4[nH]3)C1)C2 (stereo not shown) [Compound I-1, 1′-((1H-benzo[d]imidazol-2-yl)methyl)-N-hydroxy-3,4-dihydro-1H-spiro[naphthalene-2,3′-pyrrolidine]-6-carboxamide] | ≤ 100 nM
6 | COc1ccc(CCN2CCC3(CCc4cc(C(=O)NO)ccc4C3)C2)cc1 (stereo not shown) [Compound I-2, N-hydroxy-1′-(4-methoxyphenethyl)-3,4-dihydro-1H-spiro[naphthalene-2,3′-pyrrolidine]-6-carboxamide] | 100 to 500 nM
7 | COc1ccc(CN2CCC3(CCc4cc(C(=O)NO)ccc4C3)C2)cc1 (stereo not shown) [Compound I-3, N-hydroxy-1′-(4-methoxybenzyl)-3,4-dihydro-1H-spiro[naphthalene-2,3′-pyrrolidine]-6-carboxamide] | 100 to 500 nM
8 | COc1ccc(CCN2CCC3(CCc4cc(C(=O)NO)ccc4C3)C2=O)cc1 (stereo not shown) [Compound I-4, N-hydroxy-1′-(4-methoxyphenethyl)-2′-oxo-3,4-dihydro-1H-spiro[naphthalene-2,3′-pyrrolidine]-6-carboxamide] | ≤ 100 nM
9 | O=C(NO)c1ccc2c(c1)CCC1(CCN(Cc3ccc(Cl)c(Cl)c3)C1=O)C2 (stereo not shown) [Compound I-6, 1′-(3,4-dichlorobenzyl)-N-hydroxy-2′-oxo-3,4-dihydro-1H-spiro[naphthalene-2,3′-pyrrolidine]-6-carboxamide] | ≤ 100 nM
10 | O=C(NO)c1ccc2c(c1)CCC1(CCN(CC3CCCCC3)C1=O)C2 (stereo not shown) [Compound I-7, 1′-(cyclohexylmethyl)-N-hydroxy-2′-oxo-3,4-dihydro-1H-spiro[naphthalene-2,3′-pyrrolidine]-6-carboxamide] | 100 to 500 nM
11 | Cc1ccc(CN2CCC3(CCc4cc(C(=O)NO)ccc4C3)C2=O)cc1 (stereo not shown) [Compound I-8, N-hydroxy-1′-(4-methylbenzyl)-2′-oxo-3,4-dihydro-1H-spiro[naphthalene-2,3′-pyrrolidine]-6-carboxamide] | 100 to 500 nM
12 | CN(C)CCCN1CCC2(CCc3cc(C(=O)NO)ccc3C2)C1=O (stereo not shown) [Compound I-9, 1′-(3-(dimethylamino)propyl)-N-hydroxy-2′-oxo-3,4-dihydro-1H-spiro[naphthalene-2,3′-pyrrolidine]-6-carboxamide] | 100 to 500 nM
13 | COCCn1c(N2CC[C@]3(CCc4cc(C(=O)NO)ccc4C3)C2=O)nc2ccccc21 [Compound I-12, (R)-N-hydroxy-1′-(1-(2-methoxyethyl)-1H-benzo[d]imidazol-2-yl)-2′-oxo-3,4-dihydro-1H-spiro[naphthalene-2,3′-pyrrolidine]-6-carboxamide] | 100 to 500 nM
14 | COCCn1c(N2CC[C@@]3(CCc4cc(C(=O)NO)ccc4C3)C2=O)nc2ccccc21 [Compound I-13, (S)-N-hydroxy-1′-(1-(2-methoxyethyl)-1H-benzo[d]imidazol-2-yl)-2′-oxo-3,4-dihydro-1H-spiro[naphthalene-2,3′-pyrrolidine]-6-carboxamide] | ≤ 100 nM

Second part, the compound after the results:

Row | IC50 | SMILES
15 | ≤ 100 nM | O=C(NO)c1ccc2c(c1)CCC1(CCN(c3nc4ccccc4[nH]3)C1=O)C2 (stereo not shown) [Compound I-5, 1′-(1H-benzo[d]imidazol-2-yl)-N-hydroxy-2′-oxo-3,4-dihydro-1H-spiro[naphthalene-2,3′-pyrrolidine]-6-carboxamide]
16 | ≤ 100 nM | O=C(NO)c1ccc2c(c1)CC[C@]1(CCN(c3cccnc3)C1=O)C2 [Compound I-10, (R)-N-hydroxy-2′-oxo-1′-(pyridin-3-yl)-3,4-dihydro-1H-spiro[naphthalene-2,3′-pyrrolidine]-6-carboxamide]
17 | ≤ 100 nM | O=C(NO)c1ccc2c(c1)CC[C@@]1(CCN(c3cccnc3)C1=O)C2 [Compound I-11, (S)-N-hydroxy-2′-oxo-1′-(pyridin-3-yl)-3,4-dihydro-1H-spiro[naphthalene-2,3′-pyrrolidine]-6-carboxamide]
18 | > 500 nM | O=C(NO)c1ccc2c(c1)CC[C@]1(CCN(Cc3ccncc3)C1=O)C2 [Compound I-14, (R)-N-hydroxy-2′-oxo-1′-(pyridin-4-ylmethyl)-3,4-dihydro-1H-spiro[naphthalene-2,3′-pyrrolidine]-6-carboxamide]
19 | ≤ 100 nM | O=C(NO)c1ccc2c(c1)CC[C@@]1(CCN(Cc3ccncc3)C1=O)C2 [Compound I-15, (S)-N-hydroxy-2′-oxo-1′-(pyridin-4-ylmethyl)-3,4-dihydro-1H-spiro[naphthalene-2,3′-pyrrolidine]-6-carboxamide]
20 | 100 to 500 nM | O=C(NO)c1ccc2c(c1)CC[C@]1(CCN(c3ccncc3)C1=O)C2 [Compound I-16, (R)-N-hydroxy-2′-oxo-1′-(pyridin-4-yl)-3,4-dihydro-1H-spiro[naphthalene-2,3′-pyrrolidine]-6-carboxamide]
21 | ≤ 100 nM | O=C(NO)c1ccc2c(c1)CC[C@@]1(CCN(c3ccncc3)C1=O)C2 [Compound I-17, (S)-N-hydroxy-2′-oxo-1′-(pyridin-4-yl)-3,4-dihydro-1H-spiro[naphthalene-2,3′-pyrrolidine]-6-carboxamide]
22 | ≤ 100 nM | O=C(NO)c1ccc2c(c1)CC[C@]1(CCN(Cc3cccnc3)C1=O)C2 [Compound I-18, (R)-N-hydroxy-2′-oxo-1′-(pyridin-3-ylmethyl)-3,4-dihydro-1H-spiro[naphthalene-2,3′-pyrrolidine]-6-carboxamide]
23 | ≤ 100 nM | O=C(NO)c1ccc2c(c1)CC[C@@]1(CCN(Cc3cccnc3)C1=O)C2 [Compound I-19, (S)-N-hydroxy-2′-oxo-1′-(pyridin-3-ylmethyl)-3,4-dihydro-1H-spiro[naphthalene-2,3′-pyrrolidine]-6-carboxamide]
24 | ≤ 100 nM | O=C(NO)c1ccc2c(c1)CC[C@]1(CCN(c3ccccn3)C1=O)C2 [Compound I-20, (R)-N-hydroxy-2′-oxo-1′-(pyridin-2-yl)-3,4-dihydro-1H-spiro[naphthalene-2,3′-pyrrolidine]-6-carboxamide]
25 | ≤ 100 nM | O=C(NO)c1ccc2c(c1)CC[C@@]1(CCN(c3ccccn3)C1=O)C2 [Compound I-21, (S)-N-hydroxy-2′-oxo-1′-(pyridin-2-yl)-3,4-dihydro-1H-spiro[naphthalene-2,3′-pyrrolidine]-6-carboxamide]
